The numbers were not newly measured in patent US20030108586A1, “Method of long-term reversible contraception for animals” (priority 2001, published 2003), which cites them from elsewhere.

Where two headings read alike, the source gives them in different places.

As for `CC(=O)O[C@]1(C(C)=O)CC[C@H]2[C@@H]3C=C(C)C4=CC(=O)CC[C@]4(C)[C@H]3CC[C@@]21C` [Ovabant™, megestrol acetate], the adverse effects result (synthetic progestins) is on record as “development of mammary tumors as well as endometrial hyperplasia”.
For the compound `C[C@@H]1CC2=CC(=O)CC[C@@H]2[C@H]2CC[C@@]3(C)[C@@H](CC[C@]3(C)O)[C@@H]21` [Mibolerone™, Mibolerone], for the setting “bitches”, the adverse effects result is “clitoral hypertrophy”.
